Test results published in ChEMBL document CHEMBL1201862, “PubChem BioAssay data set” (2004).
Values joined by “and” are separate entries in the source; they are usually repeats but may differ in a detail not shown here. Equal entries are not always repeated.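 48-hour exposure; five concentrations; linearly interpolated endpoints. GI50 = concentration required for 50% inhibition of growth.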 Active and inactive are the calls of the source. No stated cut-off is given here; in the data, active = GI50 up to about 1.1 µM and inactive = higher.

Legend:
Experiment in all cases: DTP human tumour cell line panel, 48 h
[1] = system: 786-0
[2] = system: A498
[3] = system: A549
[4] = system: ACHN
[5] = system: CCRF-CEM
[6] = system: COLO 205
[7] = system: DU-145
[8] = system: EKVX
[9] = system: HCC 2998
[10] = system: HCT-15
[11] = system: HL-60
[12] = system: HOP-62
[13] = system: HOP-92
[14] = system: HT-29
[15] = system: Hs-578T
[16] = system: K562
[17] = system: KM12
[18] = system: LOX IMVI
[19] = system: M14
[20] = system: MCF7
[21] = system: MDA-MB-231
[22] = system: MDA-MB-435
[23] = system: MDA-N
[24] = system: MOLT-4
[25] = system: Malme-3M
[26] = system: NCI-H226
[27] = system: NCI-H23
[28] = system: NCI-H460
[29] = system: NCI/ADR-RES
[30] = system: OVCAR-3
[31] = system: OVCAR-4
[32] = system: OVCAR-5
[33] = system: OVCAR-8
[34] = system: PC-3
[35] = system: RPMI-8226
[36] = system: SF-268
[37] = system: SF-295
[38] = system: SF-539
[39] = system: SK-MEL-28
[40] = system: SK-MEL-2
[41] = system: SK-MEL-5
[42] = system: SK-OV-3
[43] = system: SN12C
[44] = system: SNB-19
[45] = system: SNB-75
[46] = system: SR
[47] = system: SW-620
[48] = system: T47D
[49] = system: TK-10
[50] = system: U-251
[51] = system: UACC-257
[52] = system: UACC-62
[53] = system: UO-31
[54] = system: CAKI-1
[55] = system: HCT-116

With CN(C)c1ccc(/C=C/c2ccnc3ccccc23)cc1N the GI50 [1] was 12.6 µM (inactive), the GI50 [2] was 10.4 µM (inactive) and the GI50 [3] was 6.81 µM (inactive). The GI50 [4] was 10.3 µM (inactive), the GI50 [5] was 3 µM (inactive) and the GI50 [6] was 2.53 µM (inactive). The GI50 [7] was 10.4 µM (inactive), the GI50 [8] was 4.72 µM (inactive) and the GI50 [9] was 10.1 µM (inactive). For the same compound, the GI50 [10] was 6.24 µM, the GI50 [11] was 3.52 µM (inactive) and the GI50 [12] was 13.8 µM (inactive). The GI50 [13] was 0.337 µM (active), the GI50 [14] was 4.49 µM (inactive) and the GI50 [15] was 15.3 µM (inactive). For the same compound, the GI50 [16] was 3.98 µM (inactive), the GI50 [17] was 7.85 µM (inactive) and the GI50 [18] was 7.41 µM (inactive). For the same compound, the GI50 [19] was 10.6 µM (inactive), the GI50 [20] was 1.57 µM (inactive) and the GI50 [21] was 4.04 µM (inactive). For the same compound, the GI50 [22] was 2.55 µM (inactive), the GI50 [23] was 3.1 µM (inactive) and the GI50 [24] was 5.64 µM (inactive). The GI50 [25] was 10.9 µM (inactive), the GI50 [26] was 11.4 µM (inactive) and the GI50 [27] was 5.68 µM (inactive). The GI50 [28] was 8.24 µM (inactive), the GI50 [29] was 13.1 µM (inactive) and the GI50 [30] was 2.32 µM (inactive). The GI50 [31] was 10.5 µM (inactive), the GI50 [32] was 13.7 µM (inactive) and the GI50 [33] was 8.85 µM (inactive). For the same compound, the GI50 [34] was 4.35 µM (inactive), the GI50 [35] was 2.52 µM (inactive) and the GI50 [36] was 9.73 µM (inactive). The GI50 [37] was 11 µM (inactive), the GI50 [38] was 14.7 µM (inactive) and the GI50 [39] was 13 µM (inactive). The GI50 [40] was 8.65 µM (inactive), the GI50 [41] was 2.82 µM (inactive) and the GI50 [42] was 15.2 µM (inactive). For the same compound, the GI50 [43] was 14.8 µM (inactive), the GI50 [44] was 14.4 µM (inactive) and the GI50 [45] was 6.5 µM (inactive). The GI50 [46] was 2.21 µM (inactive), the GI50 [47] was 12.4 µM (inactive) and the GI50 [48] was 0.547 µM (active). The GI50 [49] was 5.16 µM (inactive), the GI50 [50] was 9.66 µM (inactive) and the GI50 [51] was 2.42 µM (inactive). The GI50 [52] was 12.1 µM (inactive) and the GI50 [53] was 7.55 µM (inactive).

N#Cc1ccc(-c2ccc(Cl)cc2)n(C2OC(CO)C(O)C(O)C2O)c1=S (centres undefined) was tested, and the GI50 [3] was > 100 µM (inactive), the GI50 [4] was > 100 µM (inactive) and the GI50 [54] was > 100 µM (inactive). For the same compound, the GI50 [7] was > 100 µM (inactive), the GI50 [9] was > 100 µM (inactive) and the GI50 [55] was > 100 µM (inactive) and 86.1 µM (inactive). The GI50 [10] was greater than 100 µM, the GI50 [11] was > 100 µM (inactive) and the GI50 [14] was > 100 µM (inactive). For the same compound, the GI50 [15] was > 100 µM (inactive), the GI50 [16] was > 100 µM (inactive) and the GI50 [17] was > 100 µM (inactive). The GI50 [18] was > 100 µM (inactive), the GI50 [19] was > 100 µM (inactive) and the GI50 [20] was 62.4 µM (inactive). For the same compound, the GI50 [21] was > 100 µM (inactive), the GI50 [23] was > 100 µM (inactive) and the GI50 [24] was > 100 µM (inactive). The GI50 [25] was > 100 µM (inactive), the GI50 [26] was > 100 µM (inactive) and the GI50 [28] was > 100 µM (inactive) and 86.5 µM (inactive). The GI50 [30] was > 100 µM (inactive), the GI50 [31] was > 100 µM (inactive) and the GI50 [32] was > 100 µM (inactive). The GI50 [33] was > 100 µM (inactive), the GI50 [34] was > 100 µM (inactive) and the GI50 [35] was > 100 µM (inactive). The GI50 [38] was > 100 µM (inactive), the GI50 [39] was > 100 µM (inactive) and the GI50 [41] was > 100 µM (inactive) and 98.6 µM (inactive). The GI50 [43] was > 100 µM (inactive), the GI50 [46] was > 100 µM (inactive) and the GI50 [47] was > 100 µM (inactive). The GI50 [48] was > 100 µM (inactive), the GI50 [51] was > 100 µM (inactive) and the GI50 [53] was > 100 µM (inactive).
